Biological target: T1, human GLP-1R (Homo sapiens, UniProt P43220)
T1 construct: host or cells: HEK293
Test: GLP-1R cAMP assay (Example B1a, HTRF, 30 min at room temperature)
Assay type: cell-based
Settings: cAMP accumulation in HEK293 expressing human GLP-1R, no BETP, 30 min room temperature (Method B1a, compounds ID 1-609), Table 1; read-out: EC50
Experimental: Assay was carried out with HEK293 expressing human GLP-1R using HTRF assay, developed by Wuxi Apptec. The method is a competitive assay between native cAMP produced by the cells and exogenous cAMP labeled with a proprietary dye d2. The tracer binding is visualized by a mAb anti-cAMP labeled with Cryptate. The signal (i.e. energy transfer) is inversely proportional to the concentration of CAMP in either standard or experimental sample. Compounds were tested in the absence of BETP. Ten microliter of cell suspension in assay buffer (5 mM HEPES, 500 μM IBMX, 0.1% BSA) were added to each well (1,000 cells per well) in a low volume 384-well plate for the assay. Serially diluted compounds were added in 100 nL volume to duplicate wells, by Labcyte Echo. GLP-1 (7-37) was used as positive control. Assay plate was incubated for 30 minutes at room temperature. Stock of cAMP Detection Solution was prepared by mixing 38 parts of cAMP lysis buffer, 1 part of cAMP-D2, 1 part of anti-cAMP cryptate reagent (Cisbio #62AM4PEJ). Ten microliter of the cAMP Detection Solution was added to each well, and the assay plate was incubated for 1 hour at room temperature in the dark. Plates were read on Envision plate reader. The data were analyzed by ScreenUltra in Dotmatics, with % activation expressed using following formula: (Well data−negative control)/(postive control−negative control)*100. Dose response curves were plotted and EC50 values calculated by non-linear regression using 4-parameter fit.

T1 sequence (P43220 24-463): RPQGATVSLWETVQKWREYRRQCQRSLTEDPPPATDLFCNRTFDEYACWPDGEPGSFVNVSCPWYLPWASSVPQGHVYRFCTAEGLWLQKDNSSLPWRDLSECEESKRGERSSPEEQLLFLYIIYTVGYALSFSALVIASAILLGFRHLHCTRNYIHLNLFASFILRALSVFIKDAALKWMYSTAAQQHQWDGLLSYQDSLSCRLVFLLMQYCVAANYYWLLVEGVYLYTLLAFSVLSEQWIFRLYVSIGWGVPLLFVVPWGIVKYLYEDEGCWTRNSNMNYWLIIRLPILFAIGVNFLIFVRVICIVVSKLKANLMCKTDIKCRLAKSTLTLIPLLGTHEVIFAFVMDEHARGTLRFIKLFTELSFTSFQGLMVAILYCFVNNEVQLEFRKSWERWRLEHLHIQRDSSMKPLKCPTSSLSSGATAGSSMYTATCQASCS

Point of comparison: `Cc1cc(-n2nc3c(c2-n2ccn(-c4ccc5c(cnn5C)c4F)c2=O)[C@@H]2CC[C@H](C3)N2C(=O)c2cc3cc(C4CCOC(C)(C)C4)cnc3n2[C@@]2(c3noc(=O)[nH]3)C[C@@H]2C)cc(C)c1F` (stereo partly drawn) [Compound 311, 3-((1S,2S)-1-(5-(2,2-dimethyltetrahydro-2H-pyran-4-yl)-2-((4S,7R)-3-(3-(4-fluoro-1-methyl-1H-indazol-5-yl)-2-oxo-2,3-dihydro-1H-imidazol-1-yl)-2-(4-fluoro-3,5-dimethylphenyl)-2,4,5,6,7,8-hexahydro-4,7-epiminocyclohepta [c]pyrazole-9-carbonyl)-1H-pyrrolo[2,3-b]pyridin-1-yl)-2-methylcyclopropyl)-1,2,4-oxadiazol-5(4H)-one], EC50 57.3 nM. Against it:
- Cc1cc(-n2nc3c(c2-n2ccn(-c4ccc5c(cnn5C)c4F)c2=O)[C@@H]2CC[C@H](C3)N2C(=O)c2cc3nc(C4CCOC(C)(C)C4)sc3n2[C@@]2(c3noc(=O)[nH]3)C[C@@H]2C)cc(C)c1F (stereo partly drawn) [Compound 139, 3-[(1S,2S)-1-[2-(2,2-dimethyltetrahydropyran-4-yl)-5-[(1S,8R)-4-(4-fluoro-3,5-dimethyl-phenyl)-3-[3-(4-fluoro-1-methyl-indazol-5-yl)-2-oxo-imidazol-1-yl]-4,5,11-triazatricyclo[6.2.1.02,6]undeca-2,5-diene-11-carbonyl]pyrrolo[3,2-d]thiazol-4-yl]-2-methyl-cyclopropyl]-4H-1,2,4-oxadiazol-5-one] — 54-fold higher, 3110 nM
- Cc1cc(-n2nc3c(c2-n2ccn(-c4ccc5c(cnn5C)c4F)c2=O)[C@@H]2CC[C@H](C3)N2C(=O)c2cc3cc([C@H]4CCOC(C)(C)C4)ccc3n2[C@@]2(C(N)=O)C[C@@H]2C)cc(C)c1F [Compound 138, cis-(1S,2S)-1-[5-[(4S)-2,2-dimethyltetrahydropyran-4-yl]-2-[(1S,8R)-4-(4-fluoro-3,5-dimethyl-phenyl)-3-[3-(4-fluoro-1-methyl-indazol-5-yl)-2-oxo-imidazol-1-yl]-4,5,11-triazatricyclo[6.2.1.02,6]undeca-2,5-diene-11-carbonyl]indol-1-yl]-2-methyl-cyclopropanecarboxamide] — 18-fold higher, 1050 nM
- Cc1cc(-n2nc3c(c2-n2ccn(-c4ccc5c(cnn5C)c4F)c2=O)[C@@H]2CC[C@H](C3)N2C(=O)c2cc3cc(C4CCOC5(COC5)C4)ccc3n2C2(c3noc(=O)[nH]3)CC2)cc(C)c1F (stereo partly drawn) [Compound 136, 3-[1-[5-(2,5-dioxaspiro[3.5]nonan-8-yl)-2-[(1S,8R)-4-(4-fluoro-3,5-dimethyl-phenyl)-3-[3-(4-fluoro-1-methyl-indazol-5-yl)-2-oxo-imidazol-1-yl]-4,5,11-triazatricyclo[6.2.1.02,6]undeca-2,5-diene-11-carbonyl]indol-1-yl]cyclopropyl]-4H-1,2,4-oxadiazol-5-one] — higher, > 10000 nM
- Cc1cc(-n2nc3c(c2-n2ccn(-c4ccc5c(cnn5C)c4F)c2=O)[C@@H]2CC[C@H](C3)N2C(=O)c2cc3nc(C4CCOC(C)(C)C4)sc3n2C2(c3noc(=O)[nH]3)CC2C)cc(C)c1F (stereo partly drawn) [Compound 202, 3-[1-[2-(2,2-dimethyltetrahydropyran-4-yl)-5-[(1S,8R)-4-(4-fluoro-3,5-dimethyl-phenyl)-3-[3-(4-fluoro-1-methyl-indazol-5-yl)-2-oxo-imidazol-1-yl]-4,5,11-triazatricyclo[6.2.1.02,6]undeca-2,5-diene-11-carbonyl]pyrrolo[3,2-d]thiazol-4-yl]-2-methyl-cyclopropyl]-4H-1,2,4-oxadiazol-5-one] — higher, > 10000 nM
- Cc1cc(-n2nc3c(c2-n2ccn(-c4ccc5c(cnn5C)c4F)c2=O)[C@@H]2CC[C@H](C3)N2C(=O)c2cc3ccc([C@H]4CCOC(C)(C)C4)cc3nc2[C@@]2(c3noc(=O)[nH]3)C[C@@H]2C)cc(C)c1F [Compound 318, 3-[(1R,2S)-1-[7-[(4S)-2,2-dimethyltetrahydropyran-4-yl]-3-[(1S,8R)-4-(4-fluoro-3,5-dimethyl-phenyl)-3-[3-(4-fluoro-1-methyl-indazol-5-yl)-2-oxo-imidazol-1-yl]-4,5,11-triazatricyclo[6.2.1.02,6]undeca-2,5-diene-11-carbonyl]-2-quinolyl]-2-methyl-cyclopropyl]-4H-1,2,4-oxadiazol-5-one] — 15-fold higher, 870 nM
- Cc1cc(-n2nc3c(c2-n2ccn(-c4ccc5c(cnn5C)c4F)c2=O)[C@H]2CC[C@@H]([C@@H]3F)N2C(=O)c2cc3cc([C@H]4CCOC(C)(C)C4)ccc3n2[C@@]2(c3noc(=O)[nH]3)C[C@@H]2C)cc(C)c1F [Compound 513, 3-[(1S,2S)-1-[5-[(4S)-2,2-dimethyltetrahydropyran-4-yl]-2-[(1R,7S,8S)-7-fluoro-4-(4-fluoro-3,5-dimethyl-phenyl)-3-[3-(4-fluoro-1-methyl-indazol-5-yl)-2-oxo-imidazol-1-yl]-4,5,11-triazatricyclo[6.2.1.02,6]undeca-2,5-diene-11-carbonyl]indol-1-yl]-2-methyl-cyclopropyl]-4H-1,2,4-oxadiazol-5-one] — higher, ≥ 10000 nM
- Cc1cc(-n2nc3c(c2-n2ccn(-c4ccc5c(cnn5C)c4F)c2=O)[C@@H]2CC[C@H](C3)N2C(=O)c2cc3cc([C@H]4CCOC(C)(C)C4)ccc3n2C2(c3noc(=O)[nH]3)CCC2)cc(C)c1F [Compound 134, 3-[1-[5-[(4S)-2,2-dimethyltetrahydropyran-4-yl]-2-[(1S,8R)-4-(4-fluoro-3,5-dimethyl-phenyl)-3-[3-(4-fluoro-1-methyl-indazol-5-yl)-2-oxo-imidazol-1-yl]-4,5,11-triazatricyclo[6.2.1.02,6]undeca-2,5-diene-11-carbonyl]indol-1-yl]cyclobutyl]-4H-1,2,4-oxadiazol-5-one] — higher, > 10000 nM
- Cc1cc(-n2nc3c(c2-n2ccn(-c4ccc5c(cnn5C)c4F)c2=O)[C@@H]2CC[C@H](C3)N2C(=O)c2cc3cc([C@H]4CCOC5(CCC5)C4)ccc3n2[C@@]2(c3noc(=O)[nH]3)C[C@@H]2C)cc(C)c1F [Compound 426, 3-((1S,2S)-1-(2-((4S,7R)-3-(3-(4-fluoro-1-methyl-1H-indazol-5-yl)-2-oxo-2,3-dihydro-1H-imidazol-1-yl)-2-(4-fluoro-3,5-dimethylphenyl)-2,4,5,6,7,8-hexahydro-4,7-epiminocyclohepta [c]pyrazole-9-carbonyl)-5-((S)-5-oxaspiro[3.5]nonan-8-yl)-1H-indol-1-yl)-2-methylcyclopropyl)-1,2,4-oxadiazol-5(4H)-one] — 2.3-fold higher, 134 nM
- Cc1cc(-n2nc3c(c2-n2cc(-c4ccc5c(cnn5C)c4F)nn2)[C@H](C)N(C(=O)c2cc4cc([C@H]5CCOC(C)(C)C5)ccc4n2[C@@]2(c4noc(=O)[nH]4)C[C@@H]2C)CC3)cc(C)c1F [Compound 1, 3-((1S,2S)-1-(5-((S)-2,2-dimethyltetrahydro-2H-pyran-4-yl)-2-((S)-3-(4-(4-fluoro-1-methyl-1H-indazol-5-yl)-1H-1,2,3-triazol-1-yl)-2-(4-fluoro-3,5-dimethylphenyl)-4-methyl-4,5,6,7-tetrahydro-2H-pyrazolo[4,3-c]pyridine-5-carbonyl)-1H-indol-1-yl)-2-methylcyclopropyl)-1,2,4-oxadiazol-5 (4H)-one] — higher, > 10000 nM
- Cc1cc(-n2nc3c(c2-c2ncn(-c4ccc5c(cnn5C)c4F)c2C)[C@H](C)N(C(=O)c2cc4cc(C5=CCC(F)(F)CC5)ccc4n2C2(c4noc(=O)[nH]4)CC2)CC3)cc(C)c1F [Compound 105, 3-[1-[5-(4,4-difluorocyclohexen-1-yl)-2-[(4S)-2-(4-fluoro-3,5-dimethyl-phenyl)-3-[1-(4-fluoro-1-methyl-indazol-5-yl)-5-methyl-imidazol-4-yl]-4-methyl-6,7-dihydro-4H-pyrazolo[4,3-c]pyridine-5-carbonyl]indol-1-yl]cyclopropyl]-4H-1,2,4-oxadiazol-5-one] — higher, > 10000 nM
- Cc1cc(-n2nc3c(c2-n2ccn(-c4ccc5c(cnn5C)c4F)c2=O)[C@@H]2CC[C@H](C3)N2C(=O)c2cc3cn(C4CCOC(C)(C)C4)c(=O)cc3n2[C@@]2(c3noc(=O)[nH]3)C[C@@H]2C)cc(C)c1F (stereo partly drawn) [Compound 324, 3-[(1S,2S)-1-[5-(2,2-dimethyltetrahydropyran-4-yl)-2-[(1S,8R)-4-(4-fluoro-3,5-dimethyl-phenyl)-3-[3-(4-fluoro-1-methyl-indazol-5-yl)-2-oxo-imidazol-1-yl]-4,5,11-triazatricyclo[6.2.1.02,6]undeca-2,5-diene-11-carbonyl]-6-oxo-pyrrolo[3,2-c]pyridin-1-yl]-2-methyl-cyclopropyl]-4H-1,2,4-oxadiazol-5-one] — 4.6-fold higher, 264 nM
- Cc1cc(-n2nc3c(c2-n2ccn(-c4ccc5c(cnn5C)c4F)c2=O)[C@@H]2COC[C@H](C3)N2C(=O)c2cc3cc(C4CCOCC4)ccc3n2[C@@]2(c3noc(=O)[nH]3)C[C@@H]2C)cc(C)c1F [Compound 221, 3-((1S,2S)-1-(2-((4R,8S)-3-(3-(4-fluoro-1-methyl-1H-indazol-5-yl)-2-oxo-2,3-dihydro-1H-imidazol-1-yl)-2-(4-fluoro-3,5-dimethylphenyl)-2,4,5,7,8,9-hexahydro-4,8-epiminooxocino [5,4-c]pyrazole-10-carbonyl)-5-(tetrahydro-2H-pyran-4-yl)-1H-indol-1-yl)-2-methylcyclopropyl)-1,2,4-oxadiazol-5 (4H)-one] — 2.3-fold higher, 129 nM

Same assay, conditions: text to Table 1d, bridge atoms configured out of the plane or toward the reader

In the case of `Cc1cc(-n2nc3c(c2-n2ccn(-c4ccc5c(cnn5C)c4F)c2=O)[C@H]2CC[C@@H]([C@@H]3F)N2C(=O)c2cc3cc([C@H]4CCOC(C)(C)C4)ccc3n2[C@@]2(c3noc(=O)[nH]3)C[C@@H]2C)cc(C)c1F` [Compound 513, 3-[(1S,2S)-1-[5-[(4S)-2,2-dimethyltetrahydropyran-4-yl]-2-[(1R,7S,8S)-7-fluoro-4-(4-fluoro-3,5-dimethyl-phenyl)-3-[3-(4-fluoro-1-methyl-indazol-5-yl)-2-oxo-imidazol-1-yl]-4,5,11-triazatricyclo[6.2.1.02,6]undeca-2,5-diene-11-carbonyl]indol-1-yl]-2-methyl-cyclopropyl]-4H-1,2,4-oxadiazol-5-one], the potency is reported as “little or no potency”.

From patent US12617783B2, “Heterocyclic GLP-1R agonists” (BIOMEA FUSION, INC., priority 2024, dated 2026)
